The source of these data is EP0974573A1, “PHENYLPROPENONE COMPOUNDS AND MEDICINES CONTAINING THE SAME” (Kabushiki Kaisha Yakult Honsha, priority 1997, dated 1998).

In one assay the test system is rat-derived ACAT. Kind of assay: Inhibitory effects on rat-derived ACAT (Test 1). It counts as biochemical. The settings on record: crude enzyme from microsome protein fractions of rat liver, (14C)-oleoyl-CoA substrate, 37°C. The procedure:
To test effects on ACAT, a reaction was conducted in vitro to form (^14C)-cholesteryl oleate from endogeneous cholesterol in the presence of (^14C)-oleoyl-CoA as a substrate by using a crude enzyme prepared from microzome protein fractions of a rat liver.
The reaction mixture had the following composition: 20 µℓ of microsome protein (1.83 mg/mℓ), 20 µℓ of (^14C)-oleoyl-CoA (5 µCi/mℓ, BSA: 96 nmol/mℓ), 106 µℓ of 100 mM phosphate buffer (containing 5 mM of dithiothreitol, pH 7.4) and a sample dissolved in 4 µℓ of methanol or dimethyl sulfoxide; 150 µℓ in total.
The reaction was conducted at 37°C. After an elapse of a predetermined reaction time (18 minutes in general), a 2:1 mixture of chloroform and methanol (5.65 mℓ) was added to terminate the reaction. A 0.04 N aquous solution of hydrochloric acid (0.98 mℓ) and as a carrier, cholesteryl oleate were added, followed by extraction for 20 minutes on a shaking apparatus. The mixture was then allowed to stand overnight in a cold dark place. On the following day, the separated lower chloroform layer was extracted in its entirety and was dried under a nitrogen gas stream. The remaining upper layer was added with the lower layer (5.65 mℓ) of the Folch's partition solution, and was extracted again. After the mixture was allowed to stand overnight in a dark place, the lower layer was drawn in its entirety. This lower layer was combined with the lower chloroform layer fraction, which had already been dried to solid, and the mixture was then dried to solid.
The solid was then dissolved in chlorofrom (200 µℓ), and the solution was coated in its entirety on a G60 plate (aluminum sheet) for silica gel thin layer chromatography. After the solid was developedover 10 cm with a 10:190 mixture of diethyl ether and petroleum ether, autoradiography was conducted and the formation of (^14C)-colesteryl oleate was confirmed. This section was then cut off. The radioactivity of each sample was measured by subjecting it to liquid scintillation counting for 5 minutes in toluene or was measured for 30 minutes by a "Betascope" (manufactured by BETA-GEN INC. The results so obtained are shown in Table 1. Table 1

A further assay has as its system SD rats. Kind of assay: Plasma cholesterol elevation inhibitory effects on rats loaded with high cholesterol diet, feed-mixed administration (Test 3). It is filed as in vivo, rat. The settings on record: 0.005% of compound added to hyperlipemia inducing diet, ad libitum 3 days. An excerpt:
Using 5-week old male SD rats (120-150 g, 10 rats per group, individual feeding), plasma cholesterol elevation inhibitory effects of various compounds in the Examples on rats were studied. To a control group, a feed which had been prepared by adding 1.5% of cholesterol, 0.5% of cholic acid, 10% of coconut oil and 10% of sugar to "F-2 Diet" (product of FUNABASHI FARM CO., LTD.) was given ad libitum as a hyperlipemia inducing diet.
To each test-compound-administered group, on the other hand, a feed which had been prepared by adding 0.005% of the corresponding compound in the Examples to the hyperlipemia inducing diet of the above-described composition was given ad libitum. Further, a normal diet group to which a feed similar to the hyperlipemia inducing diet except for the exclusion of cholesterol was also tested similarly. As a testing method, after these feeds were given ad libitum for 3 days, bloods were drawn on the 4th day from the abdominal aortas of the individual rats under anesthesia with Nembutal. Subsequent to collection of plasma from each blood sample, the plasma cholesterol was quantitated by a "DETERMINER TC555 KIT" (product of Kyowa Medex Co., Ltd.) while the HDL cholesterol was quantitated by "DETERMINER HDL KIT" (product of Kyowa Medex Co., Ltd.). The liver cholesterol was measured by extracting it in accordance with the Folch's method and then measuring it with a "DETERMINER TC555 KIT". Statistical processing of the data so obtained was conducted by the Danett's test.

For assay [1], the system named is J774.1 strain, an established cell line of mouse macrophage. Put plainly: Inhibitory effects on the accumulation of cholesterol esters in macrophage (Test 2). It is filed as cell-based. The settings on record: J774.1 mouse macrophage, 12 hours incubation with cholesterol liposomes. As for the experimental part: Inhibitory effects on the accumulation of cholesterol esters in macrophage were tested using J774.1 strain, an established cell line of mouse macrophage.
Metabolism of LDL in endothelial cells or smooth muscle cells causes downregulation of the LDL receptor by excess free cholesterol in the cells, but in a macrophage, uptake of modified lDL takes place via a scavenger receptor. As no regulation is applied to this pathway, cholesterol esters progressively accumulate without any limitation.
It was therefore studied whether or not corydaline would inhibit intracellular accumulation of cholesterol esters by having liposomes, which were formed of […] cholesterol and phosphatidylcholine, uptaken in macrophage cells and then causing them to act on acyl-CoA:cholesterol acyltransferase which existed on rough-surfaced endoplasmic reticula.
The macrophage cells were incubated for 2 days under 5% CO2 on an RPMI 1640 medium (product of NISSUI PHARMACEUTICAL CO., LTD.) which had been added with 10% fetal bovine serum, penicilin (50 U/mℓ) and streptomycin (50 µg/mℓ). Trypsinization was then conducted, and cells attached to the bottom of each well were peeled off and formulated into a cell suspension. The cells were washed with a fresh supply of the above-described culture medium, and the cell solution was then seeded at 2 x 10^6 cells/mℓ on a 24-well multiple well plate ("25820-24", product of CORNING INC.). After incubation at 37°C under 5% CO2 for 37 hours, the culture medium was replaced with a fresh supply of the above-described culture medium and, after a 0.3 M glucose solution (40 µℓ) with cholesterol [80 µg; containing 0.4 µCi of (^3H)-cholesterol] and phosphatidylcholine (160 µg) contained therein and a methanol solution (10 µℓ)with a test sample dissolved therein were added, incubation was conducted for 12 hours. These procedures were carried out aseptically.
After completion of the incubation, cells attached to each bottom were washed 5 times with a serum-free RPMI 1640 medium by a graduated pipet, and isopropanol (1 mℓ) was added to extract intracellular cholesterol and formed cholesterol esters. The extract was coated in its entirety on a silica gel thin layer chromatography ("Art 5553", product of MERCK & Co., INC.) and subsequent to development with a 80:20:2 mixture of hexane, ethyl ether and formic acid, autoradiography was performed.
A section, which contained ^3H-labelled cholesterol esters and cholesterol, was cut off. Its radioactivity was measured by a liquid scintillation counter and compared with a control, whereby a cholesterol ester accumulation inhibition rate was determined.

Another assay deals with ACAT. Kind of assay: Screening toward substances having ACAT activity inhibitory effects. It is filed as biochemical. The settings on record: screening finding, no value given.

`CCCCCCCCCCCOc1c(OC)cc(/C=C/C(=O)NN2CCN(c3ccc(C)c(C)c3)CC2)cc1OC` [Compound 9, N-[4-(3,4-dimethylphenyl)-1,4-diazacyclohexyl]-(2E)-3-(3,5-dimethoxy-4-undecyloxyphenyl)-2-propenamide] registered an IC50 with rat-derived ACAT of 45 nM. For the same compound, in the assay with SD rats, the “Inhibitory rate (%) of plasma total cholesterol elevation in rat” value (shortened to “Inhibitory rate (%)”) is 28%. For `CCCCCCCCCCCCOc1c(OC)cc(/C=C/C(=O)NN2CCN(c3ccc(C)c(C)c3)CC2)cc1OC` [Compound 10, N-[4-(3,4-dimethylphenyl)-1,4-diazacyclohexyl]-(2E)-3-(3,5-dimethoxy-4-dodecyloxyphenyl)-2-propenamide] the same measures were 71 nM and 33%. Consider `COc1cc(/C=C/C(=O)N2CCN(c3ccc(C)cc3C)CC2)cc(OC)c1OCCOc1ccccc1` [Compound 24, N-[4-(2,4-dimethylphenyl)-1,4-diazacyclohexyl]-(2E)-3-[3,5-dimethoxy-4-(2-phenoxy)ethyloxy]-2-propenamide], for which, in assay [1], half-maximal inhibition (IC50) was put at 720 nM. In the assay with SD rats, the “Inhibitory rate (%)” value is listed as 20%. Regarding `CCCCCCCCCCOc1c(OC)cc(/C=C/C(=O)NCCOc2ccccc2)cc1OC` [Compound 52, N-(2-phenoxyethyl)-(2E)-3-(3,5-dimethoxy-4-decyloxyphenyl)-2-propenamide], the “Inhibitory rate (%)” value in the assay with SD rats turned out to be 23%. Still for that read-out and setting: the result for `CCCCCCCCCCOc1c(OC)cc(/C=C/C(=O)Nc2ccc(Oc3ccccc3)cc2)cc1OC` [Compound 55, N-(4-phenoxyphenyl)-(2E)-3-(3,5-dimethoxy-4-decyloxyphenyl)-2-propenamide] reads 34%. With `COc1cc(/C=C/C(=O)Nc2ccc(F)cc2)cc(OC)c1OCc1ccccc1` [Compound 77, N-(4-fluorophenyl)-(2E)-3-(3,5-dimethoxy-4-benzyloxyphenyl)-2-propenamide], the IC50 worked out at 76 nM in the assay with rat-derived ACAT and 470 nM in assay [1] (Mus musculus, J774.1, 12 h). In the same order, the values of `COc1cc(/C=C/C(=O)Nc2ccc(Cl)cc2)cc(OC)c1OCc1ccccc1` [Compound 78, N-(4-chlorophenyl)-(2E)-3-(3,5-dimethoxy-4-benzyloxyphenyl)-2-propenamide] are 35 nM and 170 nM. As to `COc1cc(/C=C/C(=O)Nc2ccc(C(F)(F)F)cc2)cc(OC)c1OCc1ccccc1` [Compound 82, N-(4-trifluoromethylphenyl)-(2E)-3-(3,5-dimethoxy-4-benzyloxyphenyl)-2-propenamide], the IC50 in the assay on rat-derived ACAT came out at 42 nM; in assay [1] (Mus musculus, J774.1, 12 h) it was 30 nM. Take `COc1cc(/C=C/C(=O)Nc2cc(C(F)(F)F)cc(C(F)(F)F)c2)cc(OC)c1OCc1ccccc1` [Compound 83, N-(3,5-bistrifluoromethylphenyl)-(2E)-3-(3,5-dimethoxy-4-benzyloxyphenyl)-2-propenamide]: the IC50 turned out to be 60 nM in the assay with rat-derived ACAT and 430 nM in assay [1] (Mus musculus, J774.1, 12 h). For the compound `COc1cc(/C=C/C(=O)CCCCc2ccccc2)ccc1O` [yakutinone B], the “ACAT activity inhibitory effects” value with ACAT is listed as “exhibits ACAT activity inhibitory effects”.
